Experimental data as given in patent US10918713B2, “Epitopes from allergen proteins and methods and uses for immune response modulation” (LA JOLLA INSTITUTE FOR ALLERGY AND IMMUNOLOGY, priority 2012, dated 2021).
Values joined by “and” are separate entries in the source; they are usually repeats but may differ in a detail not shown here. Identical values can stand only once.

Experiments:
[1] = test system: PBMC from allergic donors; experiment: Dual ELISPOT, total IL-5 and IFN-γ response (SFC); assay type: cell-based, human; details: sum of IFNg and IL-5
Description: (§1) Spots were counted by computer-assisted image analysis (Zeiss, KS-ELISPOT reader, Munich, Germany).
(§2) Each assay was performed in triplicate. The level of statistical significance was determined with a Student's t-test using the mean of triplicate values of the response against relevant pools or individual peptides versus the response against the DMSO control.

[2] = test system: PBMC from allergic donors; experiment: IL-5 ELISPOT with extract-stimulated short-term lines; assay type: cell-based, human; details: positive donor/peptide response
Description: as §1, §2

Substance | Response (SFC/10^6) Total ([1]; one donor per table line) | Response (SFC/10^6) IL-5 ([2]; one donor per table line) | Response (SFC/10^6) Total ([1]; each table line is one donor) | Response (SFC/10^6) IL-5 ([2]; each table line is one donor)
3324.0348 (RAVESYLLAHSDAYN) | 293 SFC/10^6 | 293 SFC/10^6 |  | 
3324.0349 (TSVIPAARLFKAFFL) | 427 SFC/10^6 | 427 SFC/10^6 |  | 
3324.0350 (DHTNFKYSYSVIEGG) | 413 SFC/10^6 | 413 SFC/10^6 |  | 
3324.0351 (YETETTSVIPAARLF) | 403 SFC/10^6 | 403 SFC/10^6 |  | 
3324.0354 (GIKYMVIQGEAGAVI) | 350 SFC/10^6 | 350 SFC/10^6 |  | 
3324.0355 (DGSVWAQSSSFPQFK) | 1953 SFC/10^6 | 1953 SFC/10^6 |  | 
3324.0356 (GLHLGGIKYMVIQGE) | 440 SFC/10^6 | 440 SFC/10^6 |  | 
3324.0364 (LSRALNLLGLETDLS) | 167 SFC/10^6 | 167 SFC/10^6 |  | 
3324.0522 (IIFSKNLNIKLNMPL) | 863 SFC/10^6 | 863 SFC/10^6 |  | 
3324.0525 (DKSMKVTVAFNQFGP) | 323 SFC/10^6 | 323 SFC/10^6 |  | 
3324.0529 (MAAVAFLALQLIVMA) | 283 SFC/10^6 | 283 SFC/10^6 |  | 
3324.0605 (HFFNHHKVMLLGHDD) | 992 SFC/10^6 | 992 SFC/10^6 |  | 
3324.0612 (TISNNHFFNHHKVML) | 542 SFC/10^6 | 542 SFC/10^6 |  | 
3324.0619 (GPCLFMRKVSHVILH) | 687 SFC/10^6 | 687 SFC/10^6 |  | 
3324.0621 (MRKVSHVILHGLHIH) | 642 SFC/10^6 | 642 SFC/10^6 |  | 
3324.0622 (DKSMKVTVAFNQFGP) | 102 SFC/10^6 | 102 SFC/10^6 |  | 
3324.0827 (DNGYGYFAANIDLMM) | 53 SFC/10^6 | 53 SFC/10^6 |  | 
3324.0835 (QTHSAIAVIIGIKDL) | 317 SFC/10^6 | 317 SFC/10^6 |  | 
3324.0838 (LESVKYVQSNGGAIN) | 467 SFC/10^6 | 467 SFC/10^6 |  | 
3324.0839 (ARKNFLESVKYVQSN) | 487 SFC/10^6 | 487 SFC/10^6 |  | 
3324.0940 (QQYDIKYTWNVPKIA) | 1333 SFC/10^6 | 1333 SFC/10^6 |  | 

Substance | Response (SFC/10^6) Total ([1]; one donor per table line) | Response (SFC/10^6) IL-5 ([2]; one donor per table line) | Response (SFC/10^6) Total ([1]; each table line is one donor) | Response (SFC/10^6) IL-5 ([2]; each table line is one donor)
3324.0960 (SELRRVDIAVVSRKE) | 120 SFC/10^6 | 120 SFC/10^6 |  | 
3324.0964 (GGEKISVAKIFAHEK) | 137 SFC/10^6 | 137 SFC/10^6 |  | 
3324.0966 (EYWILTAAHCVAGQT) | 203 SFC/10^6 | 203 SFC/10^6 |  | 
3324.0967 (IDNDIALIKLKSPMK) | 187 SFC/10^6 | 187 SFC/10^6 |  | 
3324.0968 (IRYNSLKHSLGGEKI) | 137 SFC/10^6 | 137 SFC/10^6 |  | 
3324.0969 (TLANPILPASPNATI) | 167 SFC/10^6 | 167 SFC/10^6 |  | 
3324.0970 (EFDAFVAYHIGARIV) | 123 SFC/10^6 and 763 SFC/10^6 | 123 SFC/10^6 and 763 SFC/10^6 |  | 
3324.0972 (LKAATAFMLAWNYGV) | 757 SFC/10^6 | 757 SFC/10^6 |  | 
3324.0973 (FEGRLLKAATAFMLA) | 113 SFC/10^6 and 953 SFC/10^6 | 113 SFC/10^6 and 953 SFC/10^6 |  | 
3324.0979 (PDDLRSIYSRLHNLN) | 177 SFC/10^6 | 177 SFC/10^6 |  | 
3324.0988 (RIYVDIVLNHMTGAQ) | 117 SFC/10^6 | 117 SFC/10^6 |  | 
3324.0989 (SIYSRLHNLNKEFFP) | 117 SFC/10^6 | 117 SFC/10^6 |  | 
3324.0991 (PRVMSSYFWNQIIKD) | 152 SFC/10^6 | 152 SFC/10^6 |  | 
3324.0992 (DALVMIDSHDLRVGH) | 290 SFC/10^6 | 290 SFC/10^6 |  | 
3324.0993 (VKFRMIAGQEPVHNW) | 92 SFC/10^6 | 92 SFC/10^6 |  | 
3324.0997 (GELALFYLQEQINHF) | 1113 SFC/10^6 | 1113 SFC/10^6 |  | 
3324.0998 (FDFLLMERIHEQIKK) | 143 SFC/10^6 | 143 SFC/10^6 |  | 
3324.1001 (RKDLDIFEQYNLEMA) | 117 SFC/10^6 | 117 SFC/10^6 |  | 
3324.1036 (TLPTILQIASVTKMS) | 120 SFC/10^6 | 120 SFC/10^6 |  | 
3324.1040 (TIYSNVANLRNWIIS) | 297 SFC/10^6 | 297 SFC/10^6 |  | 
3324.1043 (SNVANLRNWIISNTV) | 177 SFC/10^6 | 177 SFC/10^6 |  | 

Substance | Response (SFC/10^6) Total ([1]; one donor per table line) | Response (SFC/10^6) IL-5 ([2]; one donor per table line) | Response (SFC/10^6) Total ([1]; each table line is one donor) | Response (SFC/10^6) IL-5 ([2]; each table line is one donor)
3324.1102 (DTCRARFITKLSEFI) | 67 SFC/10^6 | 67 SFC/10^6 |  | 
3324.1105 (LSEFITGASVRLQCR) | 73 SFC/10^6 | 73 SFC/10^6 |  | 
3324.1129 (ELADILRSLGSDVGE) | 380 SFC/10^6 | 380 SFC/10^6 |  | 
3324.1130 (LISVEEFQTMMTSEM) | 153 SFC/10^6 | 153 SFC/10^6 |  | 
3324.1131 (GYVSLQEFVDLNNKG) | 80 SFC/10^6 and 420 SFC/10^6 | 80 SFC/10^6 and 420 SFC/10^6 |  | 
3324.1134 (VALFAVFLGSAHGIA) | 208 SFC/10^6 | 208 SFC/10^6 |  | 
3324.1137 (KQQGIRYANPIAFFR) | 123 SFC/10^6 | 123 SFC/10^6 |  | 
3324.1170 (FLAVALVAGPAASYA) |  |  | 63 SFC/10^6 | 63 SFC/10^6
3324.1178 (EVKYTVSETALKKAV) |  |  | 333 SFC/10^6 | 333 SFC/10^6
3324.1179 (FTVFENTFNNAIKVS) |  |  | 87 SFC/10^6 | 87 SFC/10^6
3324.1181 (VDAAYRTAATAANAA) |  |  | 383 SFC/10^6 | 383 SFC/10^6
3324.1183 (LKKAVTAMSEAEKEA) |  |  | 128 SFC/10^6 | 128 SFC/10^6
3324.1186 (TNKAFVEGLASGYAD) |  |  | 287 SFC/10^6 | 287 SFC/10^6
3324.1191 (DKFTVFESAFNKALN) |  |  | 97 SFC/10^6 | 97 SFC/10^6
3324.1196 (AALTKAITAMTQAQK) |  |  | 998 SFC/10^6 | 998 SFC/10^6
3324.1547 (KYMVIQGEPGAVIRG) | 63 SFC/10^6 | 63 SFC/10^6 |  | 
3324.1549 (SSSFPQFKSEEITNI) | 77 SFC/10^6 | 77 SFC/10^6 |  | 
3324.1550 (GVTVKKTNQALIFGI) | 93 SFC/10^6 | 93 SFC/10^6 |  | 
3324.1552 (HSRNLINELSERMAG) |  |  | 118 SFC/10^6 and 190 SFC/10^6 and 57 SFC/10^6 | 118 SFC/10^6 and 190 SFC/10^6 and 57 SFC/10^6
3324.1558 (NYLALLVKYVTGDGD) |  |  | 80 SFC/10^6 | 80 SFC/10^6
3324.1562 (DKFTVFEAAFNNAIK) |  |  | 183 SFC/10^6 | 183 SFC/10^6
